Reference: patent US11707442B2, “Antibacterial and antifungal compounds” (The General Hospital Corporation, priority 2015, dated 2023)
In brackets after ≈: the same amount, converted by molar mass. Read-outs that look alike come from different tables or passages of the source.

Key:
[1] = system: Salmonella typhimurium strains TA 1535 and TA 1538; details: With S9; 5 μg/plate
Description: The Ames test was conducted using histidine auxotroph Salmonella typhimurium strains TA 1535 and TA 1538. To test mutagenic potential of the synthetic retinoids themselves and their metabolic products, the assay was conducted both with and without rat liver S9 fraction (Moltox, Boone, N.C., USA). Briefly, 100 μl of bacterial overnight cultures was added into 500 μl of phosphate buffer containing a range of amounts of the retinoids dissolved in 10 μl DMSO and with or without 4% S9. After incubation at 37° C. for 1 h, the samples were added into 2 ml of soft agar including 0.5 mM of histidine/biotin, mixed, and poured onto minimal glucose agar plates. The plates were incubated at 37° C. for 48 h, and the revertant colonies were counted. 10 μl DMSO was used as a negative control. […] 5 μg/plate 2-aminoanthracene was used as a positive control for both strains in the metabolic activation system. The test was performed in triplicate.

C. neoformans = assay: MIC against fungal cultures; assay type: cell-based; details: Cryptococcus neoformans, read-out: Drug MIC
Description: (§1) The cells were harvested by centrifugation at 4000 RPM for 5 minutes and washed with PBS; the cell pellets were resuspended in RPMI 1640 medium. The cell count was calculated with a hemocytometer and adjusted to be between 5.0×10^4 to 2.5×10^6 cells/ml. A tested compound was prepared and added to RPMI 1640 medium at 2× the final concentration. […] For C. albicans, OD595 was read after incubating the plate at 35° C. for 24 hrs. For KN99α, OD595 was read after incubating the plate at 35° C. for 70 hrs in accordance with CLSI document M27-A2.

Candida tropicalis = assay: MIC against fungal cultures; assay type: cell-based
Description: as §1

Candida glabrata = assay: MIC against fungal cultures; assay type: cell-based; details: Nakaseomyces glabratus, read-out: Drug MIC
E. faecium = assay: MIC, broth microdilution; assay type: cell-based, Enterococcus faecium; details: Enterococcus faecium, read-out: Drug MIC
Description: (§2) Bacterial strains and growth conditions and persister isolation: methicillin-resistant S. aureus (MRSA) strain MW2 BAA-1707, vancomycin-resistant S. aureus strain VRS 1, 11 clinical S. aureus isolates, 8 clinical Enterococcus faecium isolates, Klebsiella pneumoniae WGLW2 (BEI Resources, Manassas, Va., USA), Acinetobacter baumannii ATCC 17978, Pseudomonas aeruginosa PA14, and Enterobacter aerogenes ATCC 13048 were used to test antimicrobial activity (See Table 1a). S. aureus and E. faecium strains were grown in tryptic soy broth (TSB) (BD, Franklin Lakes, N.J., USA) or brain-heart infusion (BHI) broth (BD, Franklin Lakes, N.J., USA), respectively at 37° C. at 225 rpm. K. pneumoniae, A. baumannii, P. aeruginosa, and E. aerogenes were grown in Luria Bertani (LB) broth (BD, Franklin Lakes, N.J., USA).
(§3) To test the bacterial MICs for compounds described herein, the total volume in each well was 100 μl of test compounds and bacterial cells in MH broth. […] The bacterial concentration was adjusted to an initial OD600 of 0.03. After incubation at 35° C. for 18 hrs, the absorbance was measured at 595 nm in accordance with CLSI document M07-A8. The MICs of antibiotics were determined by the standard microdilution method recommended by the Clinical and Laboratory Standards Institute.

S. aureus = assay: Minimal inhibitory concentration (MIC), broth microdilution; assay type: cell-based, Staphylococcus aureus
Description: as §2, §3

[2] = C. neoformans clinical isolate 41291
[3] = C. neoformans clinical isolate 41292
[4] = C. neoformans clinical isolate 41294
[5] = C. neoformans clinical isolate 41295
[6] = C. neoformans clinical isolate 41296
[7] = C. neoformans clinical isolate 41297
[8] = C. neoformans clinical isolate 41298
[9] = C. neoformans clinical isolate 41299
[10] = C. neoformans clinical isolate 41300
[11] = C. neoformans clinical isolate BF113
[12] = C. neoformans clinical isolate BF114
[13] = ATCC13803, Candida tropicalis ATCC 13803 (Reference), read-out: Drug MIC
[14] = Candida tropicalis clinical isolate 11, read-out: Drug MIC
[15] = Candida tropicalis clinical isolate 85-S, read-out: Drug MIC
[16] = Candida tropicalis clinical isolate 172-S, read-out: Drug MIC
[17] = ATCC90030, Candida glabrata ATCC 90030 (Reference)
[18] = Candida glabrata clinical isolate 6891
[19] = Candida glabrata clinical isolate 6922
[20] = Candida glabrata clinical isolate 6927
[21] = Candida glabrata clinical isolate 6930
[22] = Candida glabrata clinical isolate 6931
[23] = Candida glabrata clinical isolate 6932
[24] = Candida glabrata clinical isolate 6943
[25] = Candida glabrata clinical isolate 7110
[26] = Candida glabrata clinical isolate 7117
[27] = Candida glabrata clinical isolate 7221
[28] = Candida glabrata clinical isolate 7255
[29] = Candida glabrata clinical isolate 7815
[30] = Candida glabrata clinical isolate 7869
[31] = Candida glabrata clinical isolate 7871
[32] = Candida glabrata clinical isolate 8066

Nc1ccc2cc3ccccc3cc2c1 [2AA, 2-Aminoanthracene]
Number of revertants (T1535) [1]: 263 ± 15
Number of revertants (T1538) [1]: 2568 ± 108

C[C@@H]1[C@H](O)[C@@H](C)/C=C/C=C/C=C/C=C/C=C/C=C/C=C/[C@H](O[C@@H]2O[C@H](C)[C@@H](O)[C@H](N)[C@@H]2O)C[C@@H]2O[C@](O)(C[C@@H](O)C[C@@H](O)[C@H](O)CC[C@@H](O)C[C@@H](O)CC(=O)O[C@H]1C)C[C@H](O)[C@H]2C(=O)O [Amphotericin B]
MIC (C. neoformans; [2]): 0.125 µg/mL (≈ 0.135 µM)
MIC (C. neoformans; [3]): 0.125 µg/mL (≈ 0.135 µM)
MIC (C. neoformans; [4]): 0.125 µg/mL (≈ 0.135 µM)
MIC (C. neoformans; [5]): 0.125 µg/mL (≈ 0.135 µM)
MIC (C. neoformans; [6]): 0.125 µg/mL (≈ 0.135 µM)
MIC (C. neoformans; [7]): 0.125 µg/mL (≈ 0.135 µM)
MIC (C. neoformans; [8]): 0.125 µg/mL (≈ 0.135 µM)
MIC (C. neoformans; [9]): 0.125 µg/mL (≈ 0.135 µM)
MIC (C. neoformans; [10]): 0.125 µg/mL (≈ 0.135 µM)
MIC (C. neoformans; [11]): 0.125 µg/mL (≈ 0.135 µM)
MIC (C. neoformans; [12]): < 0.0625 µg/mL
MIC (Candida tropicalis; [13]): 1 µg/mL (≈ 1.08 µM)
MIC (Candida tropicalis; [14]): 0.5 µg/mL (≈ 0.541 µM)
MIC (Candida tropicalis; [15]): 0.125 µg/mL (≈ 0.135 µM)
MIC (Candida tropicalis; [16]): 0.5 µg/mL (≈ 0.541 µM)
MIC (Candida glabrata; [17]): 1 µg/mL (≈ 1.08 µM)
MIC (Candida glabrata; [18]): 0.5 µg/mL (≈ 0.541 µM)
MIC (Candida glabrata; [19]): 0.5 µg/mL (≈ 0.541 µM)
MIC (Candida glabrata; [20]): 1 µg/mL (≈ 1.08 µM)
MIC (Candida glabrata; [21]): 1 µg/mL (≈ 1.08 µM)
MIC (Candida glabrata; [22]): 0.5 µg/mL (≈ 0.541 µM)
MIC (Candida glabrata; [23]): 0.5 µg/mL (≈ 0.541 µM)
MIC (Candida glabrata; [24]): 1 µg/mL (≈ 1.08 µM)
MIC (Candida glabrata; [25]): 0.5 µg/mL (≈ 0.541 µM)
MIC (Candida glabrata; [26]): 0.5 µg/mL (≈ 0.541 µM)
MIC (Candida glabrata; [27]): 0.5 µg/mL (≈ 0.541 µM)
MIC (Candida glabrata; [28]): 1 µg/mL (≈ 1.08 µM)
MIC (Candida glabrata; [29]): 0.5 µg/mL (≈ 0.541 µM)
MIC (Candida glabrata; [30]): 1 µg/mL (≈ 1.08 µM)
MIC (Candida glabrata; [31]): 1 µg/mL (≈ 1.08 µM)
MIC (Candida glabrata; [32]): 0.5 µg/mL (≈ 0.541 µM)

OC(Cn1cncn1)(Cn1cncn1)c1ccc(F)cc1F [Fluconazole]
MIC (C. neoformans; [2]): 8 µg/mL (≈ 26.1 µM)
MIC (C. neoformans; [3]): 64 µg/mL (≈ 209 µM)
MIC (C. neoformans; [4]): 8 µg/mL (≈ 26.1 µM)
MIC (C. neoformans; [5]): 64 µg/mL (≈ 209 µM)
MIC (C. neoformans; [6]): > 64 µg/mL
MIC (C. neoformans; [7]): 8 µg/mL (≈ 26.1 µM)
MIC (C. neoformans; [8]): 8 µg/mL (≈ 26.1 µM)
MIC (C. neoformans; [9]): 4 µg/mL (≈ 13.1 µM)
MIC (C. neoformans; [10]): > 64 µg/mL
MIC (C. neoformans; [11]): 16 µg/mL (≈ 52.2 µM)
MIC (C. neoformans; [12]): 64 µg/mL (≈ 209 µM)
MIC (Candida tropicalis; [13]): 8 µg/mL (≈ 26.1 µM)
MIC (Candida tropicalis; [14]): 0.5 µg/mL (≈ 1.63 µM)
MIC (Candida tropicalis; [15]): 1 µg/mL (≈ 3.27 µM)
MIC (Candida tropicalis; [16]): 2 µg/mL (≈ 6.53 µM)
MIC (Candida glabrata; [17]): 8 µg/mL (≈ 26.1 µM)
MIC (Candida glabrata; [18]): 2 µg/mL (≈ 6.53 µM)
MIC (Candida glabrata; [19]): 2 µg/mL (≈ 6.53 µM)
MIC (Candida glabrata; [20]): 2 µg/mL (≈ 6.53 µM)
MIC (Candida glabrata; [21]): 1 µg/mL (≈ 3.27 µM)
MIC (Candida glabrata; [22]): 0.5 µg/mL (≈ 1.63 µM)
MIC (Candida glabrata; [23]): 0.5 µg/mL (≈ 1.63 µM)
MIC (Candida glabrata; [24]): 8 µg/mL (≈ 26.1 µM)
MIC (Candida glabrata; [25]): 1 µg/mL (≈ 3.27 µM)
MIC (Candida glabrata; [26]): 2 µg/mL (≈ 6.53 µM)
MIC (Candida glabrata; [27]): 1 µg/mL (≈ 3.27 µM)
MIC (Candida glabrata; [28]): 2 µg/mL (≈ 6.53 µM)
MIC (Candida glabrata; [29]): 2 µg/mL (≈ 6.53 µM)
MIC (Candida glabrata; [30]): 4 µg/mL (≈ 13.1 µM)
MIC (Candida glabrata; [31]): 2 µg/mL (≈ 6.53 µM)
MIC (Candida glabrata; [32]): 2 µg/mL (≈ 6.53 µM)

O=C(N[C@H](CO)[C@H](O)c1ccc([N+](=O)[O-])cc1)C(Cl)Cl [chloramphenicol]
MIC (E. faecium; Enterococcus faecium clinical isolate C68 (Table 6)): 16 µg/mL (≈ 49.5 µM)
MIC (E. faecium; Enterococcus faecium clinical isolate D14 (Table 6)): 8 µg/mL (≈ 24.8 µM)
MIC (E. faecium; Enterococcus faecium clinical isolate D24 (Table 6)): 4 µg/mL (≈ 12.4 µM)
MIC (E. faecium; Enterococcus faecium clinical isolate D25 (Table 6)): 8 µg/mL (≈ 24.8 µM)
MIC (E. faecium; Enterococcus faecium clinical isolate D29 (Table 6)): 64 µg/mL (≈ 198 µM)
MIC (E. faecium; Enterococcus faecium clinical isolate W312 (Table 6)): 8 µg/mL (≈ 24.8 µM)
MIC (E. faecium; Enterococcus faecium clinical isolate WC176 (Table 6)): 16 µg/mL (≈ 49.5 µM)

Defensin 1: a CAMP (cationic antimicrobial peptide) secreted by the host immune system
MIC (S. aureus; S. aureus MW2 mutant SP1-8 (graS)): 8 µg/mL
MIC (S. aureus; S. aureus MW2 mutant SP1-48 (graS, manA)): 8 µg/mL
MIC (S. aureus; S. aureus MW2 mutant SP1-74 (graS, manA, MW2474)): 8 µg/mL
MIC (S. aureus; S. aureus MW2 mutant SP1-100 (graS, manA, MW2474)): 8 µg/mL
MIC (S. aureus; S. aureus MW2 mutant SP2-13 (yjbH)): 16 µg/mL
MIC (S. aureus; S. aureus MW2 mutant SP2-52 (yjbH, dltB)): 8 µg/mL
MIC (S. aureus; S. aureus MW2 mutant SP2-59 (yjbH, dltB, manA)): 8 µg/mL
MIC (S. aureus; S. aureus MW2 mutant SP2-65 (yjbH, dltB, manA, MW1685)): 8 µg/mL
MIC (S. aureus; S. aureus MW2 mutant SP2-100 (yjbH dltB, manA, MW1685)): 8 µg/mL
MIC (S. aureus; S. aureus MW2 serial passage culture SP1-1 (no mutated gene)): 16 µg/mL
MIC (S. aureus; S. aureus MW2 serial passage culture SP2-1 (no mutated gene)): 16 µg/mL
